Assay results as given in US8802597B2, “Herbicidal pyrimidines” (E I du Pont de Nemours and Company, priority 2003, dated 2014).

Assays:
Assay type in all cases: in vivo
[1] = tested on: field bindweed (Convolvulus arvensis); assay: Test G pre/postemergence
Method in brief: (§1)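 Visual scores from 0 (no effect) to 100 (complete control) were assigned relative to untreated controls 12 to 21 days after treatment. Compounds, formulated in a non-phytotoxic solvent mixture with surfactant, were applied preemergence to planted seed or postemergence to plants at the 1- to 4-leaf stage (2 to 18 cm).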

[2] = tested on: green foxtail (Setaria viridis); assay: Test G pre/postemergence
Method in brief: as §1

[3] = tested on: itchgrass (Rottboellia cochinchinensis); assay: Test G pre/postemergence
Method in brief: as §1

[4] = tested on: southern sandbur (Cenchrus echinatus); assay: Test G pre/postemergence
Method in brief: as §1

[5] = tested on: wheat (Triticum aestivum); assay: Test D pre/postemergence; conditions: scale 0 to 100 (100 = complete control)
Method in brief: (§2)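 Pre: seeds sown, then treated. Post: plants at 1- to 4-leaf stage (2 to 18 cm) sprayed at the same time. Chemicals formulated in a non-phytotoxic solvent mixture including surfactant. After 15 to 25 days under controlled growth conditions, response rated visually from 0 (no effect) to 100 (complete control).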

[6] = tested on: lambsquarters (Chenopodium album); assay: Test D pre/postemergence; conditions: scale 0 to 100 (100 = complete control)
Method in brief: as §2

[7] = tested on: wild mustard (Sinapis arvensis); assay: Test D pre/postemergence; conditions: scale 0 to 100 (100 = complete control)
Method in brief: as §2

[8] = tested on: common chickweed (Stellaria media); assay: Test D pre/postemergence; conditions: scale 0 to 100 (100 = complete control)
Method in brief: as §2

[9] = tested on: pigweed (Amaranthus retroflexus); assay: Test D pre/postemergence; conditions: scale 0 to 100 (100 = complete control)
Method in brief: as §2

[10] = tested on: wild buckwheat (Polygonum convolvulus); assay: Test D pre/postemergence; conditions: scale 0 to 100 (100 = complete control)
Method in brief: as §2

[11] = tested on: catchweed bedstraw (galium; Galium aparine); assay: Test D pre/postemergence; conditions: scale 0 to 100 (100 = complete control)
Method in brief: as §2

[12] = tested on: kochia (Kochia scoparia); assay: Test D pre/postemergence; conditions: scale 0 to 100 (100 = complete control)
Method in brief: as §2

[13] = tested on: Russian thistle (Salsola kali); assay: Test D pre/postemergence; conditions: scale 0 to 100 (100 = complete control)
Method in brief: as §2

[14] = Postemergence, 250 g ai/ha, scale 0 to 100
[15] = Postemergence, 500 g ai/ha, scale 0 to 100
[16] = Postemergence, 62 g ai/ha, scale 0 to 100
[17] = Postemergence, 125 g ai/ha, scale 0 to 100
[18] = Postemergence, 375 g ai/ha, scale 0 to 100
[19] = Preemergence, 62 g ai/ha, scale 0-100
[20] = Preemergence, 125 g ai/ha, scale 0-100
[21] = Preemergence, 250 g ai/ha, scale 0-100
[22] = Preemergence, 500 g ai/ha, scale 0 to 100
[23] = Preemergence, 375 g ai/ha, scale 0 to 100
[24] = Preemergence, 500 g ai/ha, scale 0-100

CCOC(=O)c1nc(C2CC2)nc(N)c1Br [Compound 1, ethyl 6-amino-5-bromo-2-cyclopropyl-4-pyrimidinecarboxylate]
Plant response rating, Bindweed, Field [1, 14]: 95 | Plant response rating, Bindweed, Field [1, 15]: 95 | Plant response rating, Bindweed, Field [1, 16]: 90 | Plant response rating, Bindweed, Field [1, 17]: 95 | Plant response rating, Bindweed, Field [1, 18]: 95 | Plant response rating, Bindweed, Field [1, 19]: 95 | Plant response rating, Bindweed, Field [1, 20]: 100 | Plant response rating, Bindweed, Field [1, 21]: 100 | Plant response rating, Bindweed, Field [1, 22]: 100 | Plant response rating, Bindweed, Field [1, 23]: 100 | Plant response rating, Foxtail, Green [2, 14]: 30 | Plant response rating, Foxtail, Green [2, 15]: 60 | Plant response rating, Foxtail, Green [2, 16]: 10 | Plant response rating, Foxtail, Green [2, 17]: 20 | Plant response rating, Foxtail, Green [2, 18]: 50 | Plant response rating, Foxtail, Green [2, 19]: 10 | Plant response rating, Foxtail, Green [2, 20]: 10 | Plant response rating, Foxtail, Green [2, 21]: 50 | Plant response rating, Foxtail, Green [2, 22]: 90 | Plant response rating, Foxtail, Green [2, 23]: 90 | Plant response rating, Itchgrass [3, 14]: 60 | Plant response rating, Itchgrass [3, 15]: 70 | Plant response rating, Itchgrass [3, 16]: 20 | Plant response rating, Itchgrass [3, 17]: 40 | Plant response rating, Itchgrass [3, 18]: 60 | Plant response rating, Itchgrass [3, 19]: 10 | Plant response rating, Itchgrass [3, 20]: 30 | Plant response rating, Itchgrass [3, 21]: 80 | Plant response rating, Itchgrass [3, 24]: 85 | Plant response rating, Itchgrass [3, 22]: 90 | Plant response rating, Sandbur [4, 14]: 95 | Plant response rating, Sandbur [4, 15]: 95 | Plant response rating, Sandbur [4, 16]: 30 | Plant response rating, Sandbur [4, 17]: 60 | Plant response rating, Sandbur [4, 18]: 95 | Plant response rating, Sandbur [4, 19]: 0 | Plant response rating, Sandbur [4, 20]: 30 | Plant response rating, Sandbur [4, 21]: 70 | Plant response rating, Sandbur [4, 24]: 85 | Plant response rating, Sandbur [4, 22]: 85 | Plant response rating, Wheat ([5]; Postemergence, 16 g ai/ha): 40 | Plant response rating, Wheat ([5]; Postemergence, 31 g ai/ha): 80 | Plant response rating, Wheat ([5]; Postemergence, 62 g ai/ha): 90 | Plant response rating, Wheat ([5]; Postemergence, 125 g ai/ha): 100 | Plant response rating, Wheat ([5]; Preemergence, 16 g ai/ha): 35 | Plant response rating, Wheat ([5]; Preemergence, 31 g ai/ha): 70 | Plant response rating, Wheat ([5]; Preemergence, 62 g ai/ha): 70 | Plant response rating, Wheat ([5]; Preemergence, 125 g ai/ha): 70 | Plant response rating, Lambsquarters ([6]; Postemergence, 16 g ai/ha): 95 | Plant response rating, Lambsquarters ([6]; Postemergence, 31 g ai/ha): 95 | Plant response rating, Lambsquarters ([6]; Postemergence, 62 g ai/ha): 100 | Plant response rating, Lambsquarters ([6]; Postemergence, 125 g ai/ha): 100 | Plant response rating, Lambsquarters ([6]; Preemergence, 16 g ai/ha): 65 | Plant response rating, Lambsquarters ([6]; Preemergence, 31 g ai/ha): 75 | Plant response rating, Lambsquarters ([6]; Preemergence, 62 g ai/ha): 85 | Plant response rating, Lambsquarters ([6]; Preemergence, 125 g ai/ha): 100 | Plant response rating, Mustard, Wild ([7]; Postemergence, 16 g ai/ha): 60 | Plant response rating, Mustard, Wild ([7]; Postemergence, 31 g ai/ha): 70 | Plant response rating, Mustard, Wild ([7]; Postemergence, 62 g ai/ha): 70 | Plant response rating, Mustard, Wild ([7]; Postemergence, 125 g ai/ha): 75 | Plant response rating, Mustard, Wild ([7]; Preemergence, 16 g ai/ha): 50 | Plant response rating, Mustard, Wild ([7]; Preemergence, 31 g ai/ha): 65 | Plant response rating, Mustard, Wild ([7]; Preemergence, 62 g ai/ha): 70 | Plant response rating, Mustard, Wild ([7]; Preemergence, 125 g ai/ha): 90 | Plant response rating, Chickweed ([8]; Postemergence, 16 g ai/ha): 65 | Plant response rating, Chickweed ([8]; Postemergence, 31 g ai/ha): 65 | Plant response rating, Chickweed ([8]; Postemergence, 62 g ai/ha): 65 | Plant response rating, Chickweed ([8]; Postemergence, 125 g ai/ha): 85 | Plant response rating, Chickweed ([8]; Preemergence, 16 g ai/ha): 60 | Plant response rating, Chickweed ([8]; Preemergence, 31 g ai/ha): 65 | Plant response rating, Chickweed ([8]; Preemergence, 62 g ai/ha): 70 | Plant response rating, Chickweed ([8]; Preemergence, 125 g ai/ha): 75 | Plant response rating, Pigweed ([9]; Postemergence, 16 g ai/ha): 60 | Plant response rating, Pigweed ([9]; Postemergence, 31 g ai/ha): 100 | Plant response rating, Pigweed ([9]; Postemergence, 62 g ai/ha): 100 | Plant response rating, Pigweed ([9]; Postemergence, 125 g ai/ha): 100 | Plant response rating, Pigweed ([9]; Preemergence, 16 g ai/ha): 60 | Plant response rating, Pigweed ([9]; Preemergence, 31 g ai/ha): 70 | Plant response rating, Pigweed ([9]; Preemergence, 62 g ai/ha): 95 | Plant response rating, Pigweed ([9]; Preemergence, 125 g ai/ha): 100 | Plant response rating, Buckwheat, Wild ([10]; Postemergence, 16 g ai/ha): 50 | Plant response rating, Buckwheat, Wild ([10]; Postemergence, 31 g ai/ha): 80 | Plant response rating, Buckwheat, Wild ([10]; Postemergence, 62 g ai/ha): 80 | Plant response rating, Buckwheat, Wild ([10]; Postemergence, 125 g ai/ha): 80 | Plant response rating, Buckwheat, Wild ([10]; Preemergence, 16 g ai/ha): 45 | Plant response rating, Buckwheat, Wild ([10]; Preemergence, 31 g ai/ha): 60 | Plant response rating, Buckwheat, Wild ([10]; Preemergence, 62 g ai/ha): 70 | Plant response rating, Buckwheat, Wild ([10]; Preemergence, 125 g ai/ha): 75 | Plant response rating, Galium ([11]; Postemergence, 16 g ai/ha): 95 | Plant response rating, Galium ([11]; Postemergence, 31 g ai/ha): 100 | Plant response rating, Galium ([11]; Postemergence, 62 g ai/ha): 100 | Plant response rating, Galium ([11]; Postemergence, 125 g ai/ha): 100 | Plant response rating, Galium ([11]; Preemergence, 16 g ai/ha): 80 | Plant response rating, Galium ([11]; Preemergence, 31 g ai/ha): 80 | Plant response rating, Galium ([11]; Preemergence, 62 g ai/ha): 100 | Plant response rating, Galium ([11]; Preemergence, 125 g ai/ha): 100 | Plant response rating, Kochia ([12]; Postemergence, 16 g ai/ha): 85 | Plant response rating, Kochia ([12]; Postemergence, 31 g ai/ha): 100 | Plant response rating, Kochia ([12]; Postemergence, 62 g ai/ha): 100 | Plant response rating, Kochia ([12]; Postemergence, 125 g ai/ha): 100 | Plant response rating, Kochia ([12]; Preemergence, 16 g ai/ha): 65 | Plant response rating, Kochia ([12]; Preemergence, 31 g ai/ha): 75 | Plant response rating, Kochia ([12]; Preemergence, 62 g ai/ha): 100 | Plant response rating, Kochia ([12]; Preemergence, 125 g ai/ha): 100 | Plant response rating, Russian Thistle ([13]; Postemergence, 16 g ai/ha): 45 | Plant response rating, Russian Thistle ([13]; Postemergence, 31 g ai/ha): 65 | Plant response rating, Russian Thistle ([13]; Postemergence, 62 g ai/ha): 85 | Plant response rating, Russian Thistle ([13]; Postemergence, 125 g ai/ha): 100 | Plant response rating, Russian Thistle ([13]; Preemergence, 16 g ai/ha): 100 | Plant response rating, Russian Thistle ([13]; Preemergence, 31 g ai/ha): 100 | Plant response rating, Russian Thistle ([13]; Preemergence, 62 g ai/ha): 100 | Plant response rating, Russian Thistle ([13]; Preemergence, 125 g ai/ha): 100
